Experimental data taken from ChEMBL document CHEMBL4340557, “Fasudil dichloroacetate (FDCA), an orally available agent with potent therapeutic efficiency on monocrotaline-induced pulmonary arterial hypertension rats” (Bioorg Med Chem Lett, 2019).
One block for each molecule: values may come before it.

Experiments:
Rattus norvegicus [1] = assay: (§1) Anti-hypersensitive activity in MCT-induced pulmonary arterial hypertension Sprague-Dawley rat model assessed as reduction in cardiomyocyte hypertrophy by measuring cardiac fibrosis at 37.5 mg/kg, po administered daily for 14 days starting from 14 days post-MCT challenge and measured post-last dose by Masson's trichrome staining-based microscopic analysis (reference value: 11.74 +/- 3.24 %); assay type: functional; set-up: scale not given: the % may be the effect or the level left
Rattus norvegicus [2] = assay: (§2) Anti-hypersensitive activity in MCT-induced pulmonary arterial hypertension Sprague-Dawley rat model assessed as right ventricular systolic pressure at 37.5 mg/kg, po administered daily for 14 days starting from 14 days post-MCT challenge and measured post-last dose in presence of DCA by pressure transducer-coupled polygraphy (reference value: 59.06 +/- 3.26 mmHg); assay type: functional
[3] = Plasma concentration in Sprague-Dawley rat at 12.48 mg/kg, po measured at 0.25 hrs by LC-MS/MS analysis; assay type: ADME, organism-based
Rattus norvegicus [4] = assay: (§3) Anti-hypersensitive activity in MCT-induced pulmonary arterial hypertension Sprague-Dawley rat model assessed as pulmonary artery medial thickness at 37.5 mg/kg, po administered daily for 14 days starting from 14 days post-MCT challenge and measured post-last dose by hematoxylin and eosin staining-based microscopic analysis (reference value: […] +/- […]); assay type: functional
[5] = Cmax in Sprague-Dawley rat at 12.48 mg/kg, po by LC-MS/MS analysis; assay type: ADME, organism-based; set-up: dose 12.48 mg/kg, route oral; conditions: in vivo
Rattus norvegicus [6] = assay: as §1, with “dose in presence of DCA” for “dose”; assay type: functional; set-up: scale not given: the % may be the effect or the level left
[7] = Tmax in Sprague-Dawley rat at 12.48 mg/kg, po by LC-MS/MS analysis; assay type: ADME, organism-based; conditions: in vivo
[8] = AUC (0 to t) in Sprague-Dawley rat at 12.48 mg/kg, po by LC-MS/MS analysis; assay type: ADME, organism-based; conditions: in vivo
Rattus norvegicus [9] = assay: as §2, with “dose” for “dose in presence of DCA”; assay type: functional
[10] = AUMC (0 to infinity) in Sprague-Dawley rat at 12.48 mg/kg, po by LC-MS/MS analysis; assay type: ADME, organism-based; conditions: in vivo
[11] = AUC (0 to infinity) in Sprague-Dawley rat at 12.48 mg/kg, po by LC-MS/MS analysis; assay type: ADME, organism-based; set-up: dose 12.48 mg/kg, time infinity, route oral; conditions: in vivo
Rattus norvegicus [12] = assay: as §1, with “cross-sectional area of cardiomyocyte” for “cardiac fibrosis”, “hematoxylin and eosin” for “Masson's trichrome”, “418” for “11.74”, “50.88 micrometer2)” for “3.24 %)”; assay type: functional
[13] = Plasma concentration in Sprague-Dawley rat at 12.48 mg/kg, po measured at 2 hrs by LC-MS/MS analysis; assay type: ADME, organism-based
[14] = MRT in Sprague-Dawley rat at 12.48 mg/kg, po by LC-MS/MS analysis; assay type: ADME, organism-based; conditions: in vivo
[15] = Plasma concentration in Sprague-Dawley rat at 12.48 mg/kg, po measured at 4 hrs by LC-MS/MS analysis; assay type: ADME, organism-based
Rattus norvegicus [16] = assay: as §3, with “dose in presence of DCA” for “dose”; assay type: functional
Rattus norvegicus [17] = assay: as §1, with “lung” for “reduction in cardiomyocyte hypertrophy by measuring cardiac”, “6.12” for “11.74”, “1.66%)” for “3.24 %)”; assay type: functional
Rattus norvegicus [18] = assay: as §2, with “mean pulmonary artery” for “right ventricular systolic”, “dose” for “dose in presence of DCA”, “36” for “59.06”, “2.83” for “3.26”; assay type: functional
[19] = Elimination rate constant in Sprague-Dawley rat at 12.48 mg/kg, po by LC-MS/MS analysis; assay type: ADME, organism-based; conditions: in vivo
[20] = AUMC (0 to t) in Sprague-Dawley rat at 12.48 mg/kg, po by LC-MS/MS analysis; assay type: ADME, organism-based; conditions: in vivo
Rattus norvegicus [21] = assay: as §1, with “cross-sectional area of cardiomyocyte” for “cardiac fibrosis”, “dose in presence of DCA” for “dose”, “hematoxylin and eosin” for “Masson's trichrome”, “418” for “11.74”, “50.88 micrometer2)” for “3.24 %)”; assay type: functional
Rattus norvegicus [22] = assay: as §2, with “mean pulmonary artery” for “right ventricular systolic”, “36” for “59.06”, “2.83” for “3.26”; assay type: functional
[23] = Plasma concentration in Sprague-Dawley rat at 12.48 mg/kg, po measured at 1 hr by LC-MS/MS analysis; assay type: ADME, organism-based
Rattus norvegicus [24] = assay: Hemodynamic activity in Sprague-Dawley rat assessed as effect on mean systemic arterial pressure at 37.5 mg/kg, po administered daily for 2 weeks in presence of DCA by pressure transducer-coupled polygraphy; assay type: ADME, organism-based; conditions: in vivo, 336 h
Rattus norvegicus [25] = assay: as §1, with “lung” for “reduction in cardiomyocyte hypertrophy by measuring cardiac”, “dose in presence of DCA” for “dose”, “6.12” for “11.74”, “1.66%)” for “3.24 %)”; assay type: functional
Rattus norvegicus [26] = assay: Hemodynamic activity in Sprague-Dawley rat assessed as effect on mean systemic arterial pressure at 37.5 mg/kg, po administered daily for 2 weeks by pressure transducer-coupled polygraphy; assay type: ADME, organism-based; conditions: in vivo, 336 h
[27] = Plasma concentration in Sprague-Dawley rat at 12.48 mg/kg, po measured at 0.5 hrs by LC-MS/MS analysis; assay type: ADME, organism-based
Rattus norvegicus [28] = assay: as §1, with “cross-sectional area of cardiomyocyte” for “cardiac fibrosis”, “15.5” for “37.5”, “hematoxylin and eosin” for “Masson's trichrome”, “418” for “11.74”, “50.88 micrometer2)” for “3.24 %)”; assay type: functional
Rattus norvegicus [29] = assay: as §1, with “lung” for “reduction in cardiomyocyte hypertrophy by measuring cardiac”, “15.5” for “37.5”, “6.12” for “11.74”, “1.66%)” for “3.24 %)”; assay type: functional
Rattus norvegicus [30] = assay: as §2, with “mean pulmonary artery” for “right ventricular systolic”, “15.5” for “37.5”, “dose” for “dose in presence of DCA”, “36” for “59.06”, “2.83” for “3.26”; assay type: functional
Rattus norvegicus [31] = assay: as §1, with “15.5” for “37.5”; assay type: functional; set-up: scale not given: the % may be the effect or the level left
Rattus norvegicus [32] = assay: as §2, with “15.5” for “37.5”, “dose” for “dose in presence of DCA”; assay type: functional
Rattus norvegicus [33] = assay: Hemodynamic activity in Sprague-Dawley rat assessed as effect on mean systemic arterial pressure at 15.5 mg/kg, po administered daily for 2 weeks by pressure transducer-coupled polygraphy; assay type: ADME, organism-based; conditions: in vivo, 336 h
Rattus norvegicus [34] = assay: as §3, with “15.5” for “37.5”; assay type: functional
Rattus norvegicus [35] = assay: as §2, with “hypertrophy index” for “systolic pressure”, “15.5” for “37.5”, “dose” for “dose in presence of DCA”, “[…]” for “59.06”, “[…]” for “3.26”; assay type: functional

- concentration at 0.25 h [3]: 84.2 ng/mL
- Cmax [5]: 84.2 ng/mL
- Tmax [7]: 15 min
- AUC(0-t) [8]: 55.4 ng·h/mL
- AUMC [10]: 75.7 hr.hr.ng/ml
- AUC(0-inf) [11]: 59.8 ng·h/mL
- concentration at 2 h [13]: 7.01 ng/mL
- MRT [14]: 72 min
- concentration at 4 h [15]: 3.85 ng/mL
- k el [19]: 0.000253 s⁻¹
- AUMCt [20]: 52.8 hr.hr.ng/ml
- concentration at 1 h [23]: 17.8 ng/mL
- concentration at 0.5 h [27]: 23.2 ng/mL
SMILES: Cl.O=S(=O)(c1cccc2cnccc12)N1CCCNCC1 [FASUDIL HYDROCHLORIDE]
- Activity (Rattus norvegicus [1]): 3.97%
- Activity (Rattus norvegicus [2]): 51.13 mmHg
- Activity (Rattus norvegicus [4]): 0.21
- Activity (Rattus norvegicus [6]): 3.84%
- Activity (Rattus norvegicus [9]): 59.9 mmHg
- Activity (Rattus norvegicus [12]): 354.35 um2
- Activity (Rattus norvegicus [16]): 0.2
- Activity (Rattus norvegicus [17]): 6.41%
- Activity (Rattus norvegicus [18]): 32.83 mmHg
- Activity (Rattus norvegicus [21]): 341.12 um2
- Activity (Rattus norvegicus [22]): 29.83 mmHg
- Activity (Rattus norvegicus [24]): Non-Toxic
- Activity (Rattus norvegicus [25]): 6.71%
- Activity (Rattus norvegicus [26]): Non-Toxic

SMILES: O=C([O-])C(Cl)Cl.[Na+] [SODIUM DICHLOROACETATE]
- Activity (Rattus norvegicus [28]): 387.53 um2
- Activity (Rattus norvegicus [29]): 12.45%
- Activity (Rattus norvegicus [30]): 34 mmHg
- Activity (Rattus norvegicus [31]): 8.47%
- Activity (Rattus norvegicus [32]): 57.4 mmHg
- Activity (Rattus norvegicus [33]): Non-Toxic
- Activity (Rattus norvegicus [34]): 0.3
- Activity_index (Rattus norvegicus [35]): 0.564
